US20080069785A1, “PEST-CONTROL COMPOSITIONS, AND METHODS AND PRODUCTS UTILIZING SAME” (priority 2004, published 2008)

System: Horn fly (Haematobia irritans)
Test: Treatment of livestock, control of flying insects (Example 23)
Assay type: in vivo
Experimental: The objective of this test was to evaluate the efficacy of the formulations in repelling flying insects from landing on and disturbing livestock. Ten animals were utilized for each treatment or control, with 120 cc/animal applied for each treatment. The experiment was performed by diluting the formulation to the appropriate concentration and spraying the formulation onto the livestock directly. One group had Ivermectin applied as a standard for comparison. Each group of animals was separated in the pasture by fencing. Counts were made immediately before treatments and then 1 day after treatment and 1 week after treatment. Every 2 weeks there was a retreatment and counts were repeated just prior to retreatment with same count cycle recurring through 2 week periods.
The flying insect evaluated was the Horn fly (Haematobia irritans).

Ivermectin
Average number of flies landing on the animals (2-Aug, one day after treatment on August 1 (including Ivermectin group)): 4.8
Average number of flies landing on the animals (6-Jul, one day after the initial treatment, 120 cc/animal, ten animals): 2.4
Average number of flies landing on the animals (8-Aug, one week after treatment on August 1): 62.0
Average number of flies landing on the animals (11-Jul, one week after initial treatment): 2.7
Average number of flies landing on the animals (18-Jul, two weeks after initial treatment): 41.4
Average number of flies landing on the animals (20-Jul, one day after retreatment on July 19 (except ivermectin)): 54.5
Average number of flies landing on the animals (25-Jul, one week after retreatment on July 19 (except ivermectin)): 82.7
Average number of flies landing on the animals (31-Jul, two weeks after retreatment on July 19 (except ivermectin)): 185.9
